Assay results published in article PMC6251916, “CKD-506, a novel HDAC6-selective inhibitor, improves renal outcomes and survival in a mouse model of systemic lupus erythematosus” (Scientific Reports, 2018).

Columns and labels:
[1] = design: method as in PMID 27646843; settings: cited from earlier work
[2] = test system: HDAC6 and HDAC1; design: method as in PMID 22262760; settings: cited from earlier work
[3] = test system: NZB/W F1 female mice; assay: Murine SLE model: serum cytokine levels (Milliplex); assay type: in vivo, mouse
Experimental: Serum samples were assayed using Milliplex® MAP Kits (Millipore) for granulocyte macrophage-colony stimulating factor (GM-CSF), interferon-γ (IFN-γ), interleukin-1α (IL-1α), IL-1β, IL-10, IL-12(p70), IL-15, IL-17a, IL-2, IL-4, IL-6, tumor necrosis factor α (TNF-α), transforming growth factor beta 1 (TGF-β1), IL-22, IL-23, IFN-inducible protein 10 (IP-10 (CXCL10)) and chemokine (C-C motif) ligand 2 (CCL2 (MCP-1)).

[4] = test system: NZB/W F1 female mice; assay: Murine SLE model: BUN and anti-dsDNA antibody levels; assay type: in vivo, mouse; settings: methylprednisolone 5 mg/kg/day
Experimental: (§1) Survival had been monitored until 42 weeks of age.
Blood samples had been collected from mice under isoflurane anesthesia every 4 weeks (at 24, 28, 32, 36, 40 weeks of age and autopsy), and the obtained serum samples had been kept at −70 °C until the analysis.

[5] = test system: NZB/W F1 female mice; assay: Murine SLE model: cytokine levels in kidney extracts; assay type: in vivo, mouse; settings: group P: methylprednisolone 5 mg/kg/day; at autopsy; mean ± SD; n = 13
Experimental: The kidneys were weighed and then transferred into dPBS (Welgene) supplemented with anti-protease Complete TM cocktail (Boehringer) using 12.5 μl of dPBS per milligram of wet weight tissue. Samples were homogenized twice using an Automill TK-AM5 freeze-crushing cell homogenizer (W 280 mm × D 390 mm × H 290 mm, Tokken Inc., Chiba, Japan) at 1,400 rpm for 90 seconds and then centrifuged at 16,000 × g for 15 min at 4 °C. The supernatants were collected and total protein concentrations were determined in the kidney extracts using a bicinchoninic acid (BCA) protein assay kit™ (Pierce). Total protein concentrations of the kidney extracts were adjusted to 2 mg/dl and used for the analysis of IFN-γ, IL-10, IL-15, IL-17, IL-1β, IL-4, IL-6, IP-10, MCP-1, CCL4, RANTES, TNF-α and sCD40L with Milliplex® MAP Kits (Millipore).

[6] = test system: NZB/W F1 female mice; assay: Murine SLE model: kidney histopathology (H&E, PAS, Masson trichrome); assay type: in vivo, mouse; settings: methylprednisolone 5 mg/kg/day
From the text: as §1
Kidneys were harvested from mice at the end of the study (at 43–44 weeks of age). For light microscopy, the tissues were fixed in 10% neutral buffered formalin, embedded in paraffin wax, sectioned at a thickness of 5 μm and stained with H&E (BBC Biochemical, Mount Vernon, WA, USA). Periodic acid/Schiff (PAS stain kit, BBC Biochemical) staining and Masson trichrome (BBC Biochemical) staining were used for the detection of […] and fibrosis, respectively. Inflammatory cell infiltration and mesangial proliferation were scored on a 4-point scale as 0 (none), 1+ (mild), 2+ (moderate), 3+ (moderate to severe) and 4+ (severe).

[7] = test system: NZB/W F1 female mice; assay: Murine SLE model: flow cytometry of splenocytes; assay type: in vivo, mouse; settings: methylprednisolone 5 mg/kg/day
From the text: Single cell suspensions were obtained from the spleens of NZB/W F1 mice at autopsy (at 43–44 weeks of age). The splenocytes were stained with PerCP-Cy5.5-conjugated anti-mouse CD3e (PerCP-cy5.5-CD3e, eBioscience, San Diego, CA, USA), fluorescein isothiocyanate (FITC)-conjugated anti-mouse CD4 (FITC-CD4, BD Biosciences, San Jose, CA, USA), PE-cyanine7-conjugated anti-mouse CD8a (eBioscience), allo-phycocyanin (APC)-conjugated anti-mouse CD25 (BD Biosciences) and PE-conjugated anti-mouse CD138 (BD Biosciences).
T cell profile was analyzed as described previously; briefly, we examined proportions of Th1 cells (CD4^+CD25^+T-bet^+), Th2 cells (CD4^+CD25^+GATA-3^+), Th17 cells (CD4^+CD25^+ROR-γt^+), and Treg cells (CD4^+CD25^+Foxp3^+). To analyze T helper subsets, the splenocytes were stained with antibodies to CD4 and CD25 (FITC-conjugated anti-mouse CD4 and APC-conjugated anti-mouse CD25, BD Biosciences). Cells were fixed and permeabilized prior to staining with T-bet, GATA-3, ROR-γt and Foxp3 antibodies (PE-, BD Biosciences).

[8] = test system: NZB/W F1 female mice; assay: Murine SLE model: survival, severe proteinuria, UP/C; assay type: in vivo, mouse; settings: methylprednisolone 5 mg/kg/day i.p.
Experimental: as §1
During the experiments, urine protein levels had been measured every 2 weeks. Fresh urine was collected by performing abdominal massages. Urine protein was measured with the Coomassie Brilliant Blue method as described in our previous study. Urine creatinine was measured using a DRI-CHEM 3000 Colorimetric analyzer (Fujifilm, Tokyo, Japan) with the urine diluted in deionized water (1:100 dilution).

[9] = test system: NZB/W F1 female mice; assay: Murine SLE model: serum chemistry and necropsy; settings: group P: methylprednisolone 5 mg/kg/day; serum at autopsy; mean ± SD
Experimental: Control mice received 150 μL of vehicle (Ethanol: Kolliphor® EL: saline = 1:1:8) and were subjected to the same schedule. Survival rate and incidence of severe proteinuria (percent individual mice with urine protein ≥300 mg/dL) were calculated. Survival had been monitored until 42 weeks of age.

[10] = group P: methylprednisolone 5 mg/kg/day, at autopsy, mean ± SD, n = 13

SMILES: O=C(CCCCCCNC(=O)c1cnc(N(c2ccccc2)c2ccccc2)nc1)NO [ACY-1215]
- significant adverse effects reported in clinical trials [1]: grade 3 anemia and neutropenia
- selectivity for HDAC6 and HDAC1 at IC50 [2]: 11 fold

SMILES: C[C@H]1C[C@@H]2[C@H]([C@@H](O)C[C@@]3(C)[C@H]2CC[C@]3(O)C(=O)CO)[C@@]2(C)C=CC(=O)C=C12 [methylprednisolone, reference compound]
- Serum IFN-γ [3, 10]: 0.07 ± 0.24 pg/mL
- Serum IL-1α [3, 10]: 666.21 ± 527.20 pg/mL
- Serum IL-1β [3, 10]: 0.65 ± 2.34 pg/mL
- Serum IL-2 [3, 10]: 0.09 ± 0.34 pg/mL
- Serum IL-4 [3, 10]: 1.49 ± 0.20 pg/mL
- Serum IL-6 [3, 10]: 3.36 ± 3.30 pg/mL
- Serum IL-10 [3, 10]: 18.41 ± 12.97 pg/mL
- Serum IL-12(70) [3, 10]: 1.04 ± 3.76 pg/mL
- Serum IL-15 [3, 10]: 45.25 ± 14.91 pg/mL
- Serum IL-17 [3, 10]: 3.59 ± 1.73 pg/mL
- Serum IL-22 [3, 10]: 17.68 ± 16.19 pg/mL
- Serum IL-23 [3, 10]: 22.31 ± 61.77 pg/mL
- Serum TGF-β1 [3, 10]: 66067.78 ± 18777.09 pg/mL
- Serum TNF-α [3, 10]: 1.57 ± 2.07 pg/mL
- Mean serum levels of CCL2 vs vehicle ([3]; methylprednisolone 5 mg/kg/day, 36 weeks of age, difference not statistically significant): lower
- Levels of BUN vs vehicle ([4]; 36 weeks of age): significantly lower
- Levels of BUN vs vehicle ([4]; at autopsy): significantly lower
- Kidney extract CCL2 [5]: 19.91 ± 11.71 pg/mL
- Kidney extract CCL4 [5]: 0.60 ± 1.84 pg/mL
- Kidney extract IFN-γ [5]: 16.91 ± 5.10 pg/mL
- Kidney extract IL-1β [5]: 4.80 ± 2.85 pg/mL
- Kidney extract IL-4 [5]: 0.06 ± 0.08 pg/mL
- Kidney extract IL-6 [5]: 2.95 ± 0.59 pg/mL
- Kidney extract IL-10 [5]: 12.14 ± 2.02 pg/mL
- Kidney extract IL-15 [5]: 40.90 ± 9.01 pg/mL
- Kidney extract IP-10 [5]: 50.64 ± 15.63 pg/mL
- Kidney extract RANTES [5]: 9.77 ± 15.22 pg/mL
- Kidney extract TNF-α [5]: 0.07 ± 0.24 pg/mL
- Degree of inflammatory cell infiltration in kidneys vs vehicle [6]: significantly lower
- ratio of CD4+CD8−/CD4−CD8+ T cells in spleen vs vehicle [7]: significantly lower
- fewer CD4−CD8− cells compared with group vehicle ([7]; spleen): 4.3%
- fewer CD138+ cells compared with group vehicle ([7]; spleen): 16.3%
- Survival rate at the end of the study ([8]; 42-weeks of age): 93.3%
- incidence of severe proteinuria (urine protein >300 mg/dl) ([8]; 42 weeks of age): 20%
- Ca [9]: 9.35 ± 0.53 mg/dL
